Reference: PubChem BioAssay AID248 (DTP/NCI, 2004)
Inconclusive results and toxic doses are left out. No stated cut-off is given here; in the data, active means T/C of 150% or more; inactive means T/C below 125%.

Tested on: L1210 leukemia ip in BDF1 mice, survival T/C
Experiment: NCI In Vivo Anticancer Drug Screen. Data for tumor model L1210 Leukemia (intraperitoneal) in B6D2F1 (BDF1) mice
Conditions: endpoint: mean survival time, higher = longer survival
Method in brief: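 Tumor was transplanted into mice, which were then dosed with test compound or vehicle alone. Survival was recorded for each group, and the treated figure was expressed relative to the control figure.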

[1] = dose: 50.0 mg/kg/injection, schedule: Q01DX001 (ip), vehicle: saline
[2] = dose: 100.0 mg/kg/injection, schedule: Q01DX001 (ip), vehicle: saline
[3] = dose: 200.0 mg/kg/injection, schedule: Q01DX001 (ip), vehicle: saline
[4] = dose: 100.0 mg/kg/injection, schedule: Q04DX003 (ip), vehicle: saline with Tween-80
[5] = dose: 200.0 mg/kg/injection, schedule: Q01DX009 (ip), vehicle: saline with Tween-80
[6] = dose: 200.0 mg/kg/injection, schedule: Q04DX003 (ip), vehicle: saline with Tween-80
[7] = dose: 400.0 mg/kg/injection, schedule: Q01DX009 (ip), vehicle: saline with Tween-80
[8] = dose: 400.0 mg/kg/injection, schedule: Q01DX009 (ip), vehicle: saline
[9] = dose: 400.0 mg/kg/injection, schedule: Q04DX003 (ip), vehicle: saline with Tween-80
[10] = dose: 400.0 mg/kg/injection, schedule: Q01DX001 (ip), vehicle: saline
[11] = dose: 100.0 mg/kg/injection, schedule: Q04DX003 (ip), vehicle: Klucel (hydroxypropylcellulose) (HPC)
[12] = dose: 200.0 mg/kg/injection, schedule: Q01DX009 (ip), vehicle: Klucel (hydroxypropylcellulose) (HPC)
[13] = dose: 200.0 mg/kg/injection, schedule: Q04DX003 (ip), vehicle: Klucel (hydroxypropylcellulose) (HPC)
[14] = dose: 400.0 mg/kg/injection, schedule: Q01DX009 (ip), vehicle: Klucel (hydroxypropylcellulose) (HPC)
[15] = dose: 400.0 mg/kg/injection, schedule: Q04DX003 (ip), vehicle: Klucel (hydroxypropylcellulose) (HPC)
[16] = dose: 100.0 mg/kg/injection, schedule: Q01DX009 (ip), vehicle: Klucel (hydroxypropylcellulose) (HPC)

Measured: T/C

CC1(C)C[N+](C)(Cc2ccccc2)N=C1[O-] (stereo not drawn)
inactive: dose: 25.0 mg/kg/injection, schedule: Q01DX001 (ip), vehicle: saline 94 % of control | [1] 94 % of control | [2] 94 % of control | [3] 102 % of control

O=C(C1C(c2ccccc2)C1c1ccccc1)N(CCO)c1ccccc1 (stereo not drawn)
inactive: dose: 12.5 mg/kg/injection, schedule: Q04DX002 (ip), vehicle: saline 94 % of control | dose: 25.0 mg/kg/injection, schedule: Q04DX002 (ip), vehicle: saline 106 % of control | dose: 50.0 mg/kg/injection, schedule: Q04DX002 (ip), vehicle: saline 94 % of control

CCOC(=O)CCC(NC(=O)c1ccc(N(C)Cc2cnc3nc(NC(C)=O)cc(NC(C)=O)c3n2)cc1)C(=O)OCC (stereo not drawn)
inactive: dose: 100.0 mg/kg/injection, schedule: Q01DX001 (ip), vehicle: other 102 % of control | dose: 200.0 mg/kg/injection, schedule: Q01DX001 (ip), vehicle: other 93 % of control | dose: 400.0 mg/kg/injection, schedule: Q01DX001 (ip), vehicle: other 95 % of control

CC(=O)Nc1ccc2cnn(C(C)=O)c2c1
inactive: dose: 50.0 mg/kg/injection, schedule: Q01DX009 (ip), vehicle: water 94 % of control | dose: 100.0 mg/kg/injection, schedule: Q01DX009 (ip), vehicle: water 98 % of control | dose: 100.0 mg/kg/injection, schedule: Q04DX003 (ip), vehicle: water 104 % of control | dose: 200.0 mg/kg/injection, schedule: Q01DX009 (ip), vehicle: water 100 % of control | dose: 200.0 mg/kg/injection, schedule: Q04DX003 (ip), vehicle: water 94 % of control | dose: 400.0 mg/kg/injection, schedule: Q04DX003 (ip), vehicle: water 106 % of control

COC1/C=C/O[C@@]2(C)Oc3c(C)c(O)c4c(O)c(cc(O)c4c3C2=O)NC(=O)/C(C)=C\C=C\[C@H](C)C(O)[C@@H](C)[C@@H](O)[C@@H](C)[C@H](OC(C)=O)[C@@H]1C (stereo partly drawn)
inactive: dose: 4.0 mg/kg/injection, schedule: Q03HX040 (ip), vehicle: saline 101 % of control | dose: 8.0 mg/kg/injection, schedule: Q03HX040 (ip), vehicle: saline 103 % of control | dose: 16.0 mg/kg/injection, schedule: Q03HX040 (ip), vehicle: saline 97 % of control | dose: 100.0 mg/kg/injection, schedule: Q01DX009 (ip), vehicle: saline with Tween-80 104 % of control | [4] 95 % of control | dose: 119.0 mg/kg/injection, schedule: Q01DX009 (ip), vehicle: saline 98 % of control | dose: 128.0 mg/kg/injection, schedule: Q03HX024 (ip), vehicle: saline 92 % of control | dose: 128.0 mg/kg/injection, schedule: Q03HX040 (ip), vehicle: saline 89 % of control | dose: 178.0 mg/kg/injection, schedule: Q01DX009 (ip), vehicle: saline 96 % of control | [5] 92 % of control | [6] 87 % of control | dose: 256.0 mg/kg/injection, schedule: Q03HX024 (ip), vehicle: saline 93 % of control | dose: 267.0 mg/kg/injection, schedule: Q01DX009 (ip), vehicle: saline 98 % of control | [7] 97 % of control | [8] 104 % of control | [9] 101 % of control | dose: 512.0 mg/kg/injection, schedule: Q03HX024 (ip), vehicle: saline 92 % of control | dose: 512.0 mg/kg/injection, schedule: Q03HX040 (ip), vehicle: saline 88 % of control | dose: 1024.0 mg/kg/injection, schedule: Q03HX024 (ip), vehicle: saline 98 % of control

Nc1ncnc2c1ncn2CCCNC(=O)c1cc([N+](=O)[O-])cc([N+](=O)[O-])c1
inactive: dose: 100.0 mg/kg/injection, schedule: Q01DX009 (ip), vehicle: saline 103 % of control | dose: 200.0 mg/kg/injection, schedule: Q01DX009 (ip), vehicle: saline 96 % of control | [8] 90 % of control

[O-]/[N+](=C\c1ccc(OCc2ccccc2)cc1)c1ccccc1
inactive: [1] 102 % of control | [2] 102 % of control | [3] 108 % of control | [10] 90 % of control

CCOC(OCC)C(C)(C)OC=O
inactive: [2] 103 % of control | [3] 103 % of control | [10] 103 % of control

CC1(C)CCCC/C1=N\NC(N)=O
inactive: dose: 37.5 mg/kg/injection, schedule: Q01DX009 (ip), vehicle: saline with Tween-80 98 % of control | dose: 75.0 mg/kg/injection, schedule: Q01DX001 (ip), vehicle: other 102 % of control | dose: 75.0 mg/kg/injection, schedule: Q01DX009 (ip), vehicle: saline with Tween-80 96 % of control | dose: 75.0 mg/kg/injection, schedule: Q04DX003 (ip), vehicle: saline sonified 98 % of control | dose: 150.0 mg/kg/injection, schedule: Q01DX001 (ip), vehicle: other 102 % of control | dose: 150.0 mg/kg/injection, schedule: Q01DX009 (ip), vehicle: saline with Tween-80 94 % of control | dose: 150.0 mg/kg/injection, schedule: Q04DX003 (ip), vehicle: saline sonified 87 % of control | dose: 300.0 mg/kg/injection, schedule: Q01DX001 (ip), vehicle: other 102 % of control

O=C(c1ccccc1)C1CCCS1(=O)=O (stereo not drawn)
inactive: [11] 100 % of control | [12] 98 % of control | [13] 96 % of control | [14] 97 % of control | [15] 100 % of control

Cc1ccc(S(=O)(=O)NCCC(=O)O)cc1
inactive: [2] 93 % of control | [3] 98 % of control | [10] 98 % of control

O=C(C(Sc1ccccc1)=P(c1ccccc1)(c1ccccc1)c1ccccc1)c1ccccc1
inactive: [4] 90 % of control | [6] 90 % of control

O=S1(=O)CC(N2CCCCC2)C1
inactive: dose: 75.0 mg/kg/injection, schedule: Q01DX001 (ip), vehicle: saline 103 % of control

C=CCOc1ccn(CC=C)c(=O)n1
inactive: dose: 100.0 mg/kg/injection, schedule: Q01DX001 (ip), vehicle: Klucel (hydroxypropylcellulose) (HPC) 96 % of control | dose: 200.0 mg/kg/injection, schedule: Q01DX001 (ip), vehicle: Klucel (hydroxypropylcellulose) (HPC) 98 % of control | dose: 400.0 mg/kg/injection, schedule: Q01DX001 (ip), vehicle: Klucel (hydroxypropylcellulose) (HPC) 105 % of control

COc1ccc(C(CC(=O)c2ccccc2)SCCN2CCOCC2)cc1 (stereo not drawn)
inactive: [4] 95 % of control | [6] 99 % of control

O=C1CSC=C(c2ccccc2)O1
inactive: dose: 100.0 mg/kg/injection, schedule: Q04DX002 (ip), vehicle: saline with Tween-80 115 % of control | dose: 200.0 mg/kg/injection, schedule: Q04DX002 (ip), vehicle: saline with Tween-80 101 % of control | dose: 400.0 mg/kg/injection, schedule: Q04DX002 (ip), vehicle: saline with Tween-80 112 % of control

Cc1ccc(C2=CCCCC2)cc1
inactive: dose: 50.0 mg/kg/injection, schedule: Q01DX001 (ip), vehicle: carboxymethylcellulose (CMC) 96 % of control | dose: 100.0 mg/kg/injection, schedule: Q01DX001 (ip), vehicle: carboxymethylcellulose (CMC) 96 % of control | dose: 400.0 mg/kg/injection, schedule: Q01DX001 (ip), vehicle: carboxymethylcellulose (CMC) 94 % of control

CCC(=O)Nc1cccc(OC(=O)N(C)C)c1
inactive: [4] 100 % of control | [6] 98 % of control | [9] 100 % of control

O=C(Nc1cc2ccccc2cc1C(=O)O)Nc1cccc2ccccc12
inactive: [16] 97 % of control | [12] 101 % of control | [14] 100 % of control

N#CC1c2ccccc2C=CN1C(=O)c1ccccc1 (stereo not drawn)
inactive: dose: 50.0 mg/kg/injection, schedule: Q01DX009 (ip), vehicle: saline with Tween-80 95 % of control | [16] 92 % of control | [11] 94 % of control | [4] 97 % of control | [12] 97 % of control | [5] 93 % of control | [13] 98 % of control | [6] 94 % of control | [14] 92 % of control | [7] 95 % of control | [15] 94 % of control | [9] 96 % of control
